Laboratory results from ChEMBL document CHEMBL1909046, “DrugMatrix in vitro pharmacology data”.

Legend:
[1] = DRUGMATRIX: ATPase, Na+/K+ enzyme inhibition (substrate: ATP); type: tissue-based, Sus scrofa, Heart; details: Not Active = under 50% inhibition at 10 µM
[2] = DRUGMATRIX: Atrial Natriuretic Factor (ANF) radioligand binding (ligand: [125I] ANF (rat)); type: cell membranes, Cavia porcellus, Dunkin-Hartley, Adrenal gland, Membrane; details: Not Active = under 50% inhibition at 10 µM
[3] = DRUGMATRIX: Tumor Necrosis Factor (TNF), Non-Selective radioligand binding (ligand: [125I] TNF-alpha); type: cell membranes, Membrane; details: u-937; Not Active = under 50% inhibition at 10 µM
[4] = DRUGMATRIX: Nicotinic Acetylcholine radioligand binding (ligand: [125I] Epibatidine); type: cell membranes, Membrane; details: imr-32; Not Active = under 50% inhibition at 10 µM
Nitric oxide synthase 1 = Nitric oxide synthase 1 (Rattus norvegicus, UniProt P29476); type: tissue-based, Cerebellum; note: in other assays of this panel Not Active means under 50% inhibition at 10 µM
[5] = biological target: T1, Nitric oxide synthase, inducible (Mus musculus, UniProt P29477); set-up: species or system Escherichia coli;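 note: inhibition of iNOS enzyme activity measured with L-arginine as substrate; in other assays of this panel Not Active means under 50% inhibition at 10 µM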
T1 sequence (P29477 whole entry): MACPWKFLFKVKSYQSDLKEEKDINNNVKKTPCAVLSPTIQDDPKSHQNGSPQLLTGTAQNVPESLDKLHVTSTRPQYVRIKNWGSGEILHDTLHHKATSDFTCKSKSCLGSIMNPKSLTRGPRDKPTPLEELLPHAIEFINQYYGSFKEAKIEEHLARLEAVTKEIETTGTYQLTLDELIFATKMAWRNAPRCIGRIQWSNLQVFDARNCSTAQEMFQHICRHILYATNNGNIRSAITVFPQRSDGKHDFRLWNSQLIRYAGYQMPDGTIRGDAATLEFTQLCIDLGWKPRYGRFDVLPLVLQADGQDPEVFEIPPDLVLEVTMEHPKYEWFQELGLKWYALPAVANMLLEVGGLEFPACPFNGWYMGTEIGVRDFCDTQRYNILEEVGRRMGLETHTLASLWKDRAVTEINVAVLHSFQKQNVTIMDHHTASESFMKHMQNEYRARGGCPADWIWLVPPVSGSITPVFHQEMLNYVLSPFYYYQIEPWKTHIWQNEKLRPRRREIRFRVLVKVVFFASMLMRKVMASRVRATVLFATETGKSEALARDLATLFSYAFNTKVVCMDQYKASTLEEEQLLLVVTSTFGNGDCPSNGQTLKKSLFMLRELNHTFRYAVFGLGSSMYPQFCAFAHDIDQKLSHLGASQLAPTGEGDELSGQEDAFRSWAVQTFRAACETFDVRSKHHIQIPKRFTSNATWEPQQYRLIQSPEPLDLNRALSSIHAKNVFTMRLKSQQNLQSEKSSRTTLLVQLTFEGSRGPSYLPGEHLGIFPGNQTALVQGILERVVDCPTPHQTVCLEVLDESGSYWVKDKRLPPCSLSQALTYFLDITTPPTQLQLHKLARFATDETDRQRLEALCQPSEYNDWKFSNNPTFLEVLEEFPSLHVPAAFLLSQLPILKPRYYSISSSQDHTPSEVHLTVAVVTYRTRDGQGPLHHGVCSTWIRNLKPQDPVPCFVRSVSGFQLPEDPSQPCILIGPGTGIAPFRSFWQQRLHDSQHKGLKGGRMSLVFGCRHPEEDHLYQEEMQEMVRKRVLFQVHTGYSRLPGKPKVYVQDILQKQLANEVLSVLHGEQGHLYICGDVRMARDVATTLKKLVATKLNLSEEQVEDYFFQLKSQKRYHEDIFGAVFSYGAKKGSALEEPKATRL

Neutrophil elastase = biological target: T2, Neutrophil elastase (Homo sapiens, UniProt P08246); type: tissue-based;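 note: inhibition of neutrophil elastase enzyme activity, measured with a p-nitroanilide-linked peptide substrate; in other assays of this panel Not Active means under 50% inhibition at 10 µM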
T2 sequence (P08246 whole entry): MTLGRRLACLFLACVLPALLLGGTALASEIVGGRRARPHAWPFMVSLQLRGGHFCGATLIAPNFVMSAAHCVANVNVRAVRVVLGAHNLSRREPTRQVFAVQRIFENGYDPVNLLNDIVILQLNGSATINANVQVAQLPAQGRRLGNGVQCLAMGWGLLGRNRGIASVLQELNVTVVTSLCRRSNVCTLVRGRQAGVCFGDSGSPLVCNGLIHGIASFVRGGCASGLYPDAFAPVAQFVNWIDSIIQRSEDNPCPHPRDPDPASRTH

Interstitial collagenase = biological target: T3, Interstitial collagenase (Homo sapiens, UniProt P03956); type: tissue-based, Rheumatoid synovial fibroblasts;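 note: MMP-1 enzyme inhibition assay using a peptide substrate; in other assays of this panel Not Active means under 50% inhibition at 10 µM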
T3 sequence (P03956 whole entry): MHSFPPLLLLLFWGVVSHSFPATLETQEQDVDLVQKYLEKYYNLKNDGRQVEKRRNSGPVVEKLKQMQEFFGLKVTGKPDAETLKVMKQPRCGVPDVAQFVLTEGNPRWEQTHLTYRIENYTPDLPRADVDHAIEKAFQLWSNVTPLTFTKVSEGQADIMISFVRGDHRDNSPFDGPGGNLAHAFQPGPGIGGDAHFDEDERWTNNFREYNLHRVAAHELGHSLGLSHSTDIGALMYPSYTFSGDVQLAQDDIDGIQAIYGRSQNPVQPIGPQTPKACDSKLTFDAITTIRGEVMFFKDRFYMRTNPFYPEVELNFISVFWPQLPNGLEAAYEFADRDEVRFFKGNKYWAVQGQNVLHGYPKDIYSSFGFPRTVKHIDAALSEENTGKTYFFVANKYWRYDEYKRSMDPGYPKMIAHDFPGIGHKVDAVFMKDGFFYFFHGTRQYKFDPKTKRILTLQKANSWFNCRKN

Adenosine receptor A1 = biological target: T4, Adenosine receptor A1 (Homo sapiens, UniProt P30542); type: cell membranes, CHO, Membrane; details: cho
T4 sequence (P30542 whole entry): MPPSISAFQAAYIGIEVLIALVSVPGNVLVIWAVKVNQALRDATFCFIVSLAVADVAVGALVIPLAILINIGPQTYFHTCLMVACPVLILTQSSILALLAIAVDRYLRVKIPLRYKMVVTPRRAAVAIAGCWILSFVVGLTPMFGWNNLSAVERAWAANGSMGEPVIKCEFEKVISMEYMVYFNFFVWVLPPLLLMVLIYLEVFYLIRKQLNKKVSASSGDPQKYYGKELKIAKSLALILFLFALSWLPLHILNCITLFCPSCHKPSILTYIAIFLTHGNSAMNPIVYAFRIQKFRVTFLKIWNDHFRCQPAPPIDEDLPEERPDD

Nitric oxide synthase 1, sequence (P29476 whole entry): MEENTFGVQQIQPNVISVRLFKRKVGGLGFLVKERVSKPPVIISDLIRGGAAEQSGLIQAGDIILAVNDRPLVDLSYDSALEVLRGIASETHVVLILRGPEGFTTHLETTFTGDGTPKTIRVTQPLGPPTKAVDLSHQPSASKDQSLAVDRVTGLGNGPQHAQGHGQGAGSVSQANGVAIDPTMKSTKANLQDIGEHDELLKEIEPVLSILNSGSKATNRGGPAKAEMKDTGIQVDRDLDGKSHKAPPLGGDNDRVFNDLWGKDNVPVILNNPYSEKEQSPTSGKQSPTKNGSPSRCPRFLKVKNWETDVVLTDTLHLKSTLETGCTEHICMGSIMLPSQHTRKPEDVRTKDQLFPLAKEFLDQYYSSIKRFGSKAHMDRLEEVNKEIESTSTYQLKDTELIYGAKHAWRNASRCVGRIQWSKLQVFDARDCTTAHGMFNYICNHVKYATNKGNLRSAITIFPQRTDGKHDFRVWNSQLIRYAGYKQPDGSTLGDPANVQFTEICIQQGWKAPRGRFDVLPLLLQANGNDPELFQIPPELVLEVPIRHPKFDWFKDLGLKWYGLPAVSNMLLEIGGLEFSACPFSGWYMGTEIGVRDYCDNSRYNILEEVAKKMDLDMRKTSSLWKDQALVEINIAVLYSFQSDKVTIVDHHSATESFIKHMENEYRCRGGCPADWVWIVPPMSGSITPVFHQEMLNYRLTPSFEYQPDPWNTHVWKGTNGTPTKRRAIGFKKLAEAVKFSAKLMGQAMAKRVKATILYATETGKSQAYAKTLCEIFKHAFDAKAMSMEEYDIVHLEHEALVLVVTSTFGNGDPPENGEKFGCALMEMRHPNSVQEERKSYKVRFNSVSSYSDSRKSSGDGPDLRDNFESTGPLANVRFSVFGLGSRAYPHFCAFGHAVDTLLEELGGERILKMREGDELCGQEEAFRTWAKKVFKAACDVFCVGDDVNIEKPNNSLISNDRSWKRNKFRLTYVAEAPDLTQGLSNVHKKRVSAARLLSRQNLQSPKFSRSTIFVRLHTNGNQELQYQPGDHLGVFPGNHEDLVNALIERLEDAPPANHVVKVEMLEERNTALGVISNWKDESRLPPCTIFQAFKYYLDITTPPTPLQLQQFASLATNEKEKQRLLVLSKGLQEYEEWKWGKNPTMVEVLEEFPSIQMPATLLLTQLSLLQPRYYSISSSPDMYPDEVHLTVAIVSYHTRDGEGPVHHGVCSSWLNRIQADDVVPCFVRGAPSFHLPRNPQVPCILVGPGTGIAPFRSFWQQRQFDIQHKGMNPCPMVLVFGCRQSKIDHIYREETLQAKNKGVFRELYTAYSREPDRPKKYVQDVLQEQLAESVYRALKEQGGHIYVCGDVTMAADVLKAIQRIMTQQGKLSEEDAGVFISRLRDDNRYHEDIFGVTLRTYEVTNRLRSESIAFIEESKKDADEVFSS

COC1=CC(=O)C[C@@H](C)[C@]12Oc1c(Cl)c(OC)cc(OC)c1C2=O [GRISEOFULVIN]
Not Active: IC50 [1] | Ki [1] | IC50 [2] | Ki [2] | IC50 [3] | Ki [3] | IC50 [4] | Ki [4] | IC50 (Nitric oxide synthase 1) | IC50 [5] | IC50 (Neutrophil elastase) | IC50 (Interstitial collagenase) | IC50 (Adenosine receptor A1)

CN1C[C@H](C(=O)N[C@]2(C)O[C@@]3(O)[C@@H]4CCCN4C(=O)[C@H](Cc4ccccc4)N3C2=O)C=C2c3cccc4[nH]cc(c34)C[C@H]21 [ERGOTAMINE]
Not Active: IC50 [1] | Ki [1] | IC50 [2] | Ki [2] | IC50 [3] | Ki [3] | IC50 [4] | Ki [4] | IC50 (Nitric oxide synthase 1) | IC50 [5] | IC50 (Neutrophil elastase) | IC50 (Interstitial collagenase) | IC50 (Adenosine receptor A1)

CCCc1cc(=O)[nH]c(=S)[nH]1 [PROPYLTHIOURACIL]
Not Active: IC50 [1] | Ki [1] | IC50 [2] | Ki [2] | IC50 [3] | Ki [3] | IC50 [4] | Ki [4] | IC50 (Nitric oxide synthase 1) | IC50 [5] | IC50 (Neutrophil elastase) | IC50 (Interstitial collagenase) | IC50 (Adenosine receptor A1)

Nc1nc2c(ncn2COC(CO)CO)c(=O)[nH]1 [GANCICLOVIR]
Not Active: IC50 [1] | Ki [1] | IC50 [2] | Ki [2] | IC50 [3] | Ki [3] | IC50 [4] | Ki [4] | IC50 (Nitric oxide synthase 1) | IC50 [5] | IC50 (Neutrophil elastase) | IC50 (Interstitial collagenase) | IC50 (Adenosine receptor A1)

CC(=O)OCC(=O)[C@@]1(OC(C)=O)[C@@H](C)C[C@H]2[C@@H]3C[C@H](F)C4=CC(=O)C=C[C@]4(C)[C@@]3(F)[C@@H](O)C[C@@]21C [DIFLORASONE DIACETATE]
Not Active: IC50 [1] | Ki [1] | IC50 [2] | Ki [2] | IC50 [3] | Ki [3] | IC50 [4] | Ki [4] | IC50 (Nitric oxide synthase 1) | IC50 [5] | IC50 (Neutrophil elastase) | IC50 (Interstitial collagenase) | IC50 (Adenosine receptor A1)

CNC(=O)Oc1ccc2c(c1)[C@]1(C)CCN(C)[C@@H]1N2C [PHYSOSTIGMINE]
Not Active: IC50 [1] | Ki [1] | IC50 [2] | Ki [2] | IC50 [3] | Ki [3] | IC50 [4] | Ki [4] | IC50 (Nitric oxide synthase 1) | IC50 [5] | IC50 (Neutrophil elastase) | IC50 (Interstitial collagenase) | IC50 (Adenosine receptor A1)

C=C1[C@@H]2CCC3[C@@](CC[C@@H]4[C@H](C(=O)O)C[C@@H](O[C@@H]5O[C@H](CO)[C@@H](OS(=O)(=O)[O-])[C@H](OS(=O)(=O)[O-])[C@H]5OC(=O)CC(C)C)C[C@@]34C)(C2)[C@@H]1O.[K+].[K+] (stereo partly drawn) [ATRACTYLOSIDE]
Not Active: IC50 [1] | Ki [1] | IC50 [2] | Ki [2] | IC50 [3] | Ki [3] | IC50 [4] | Ki [4] | IC50 (Nitric oxide synthase 1) | IC50 [5] | IC50 (Neutrophil elastase) | IC50 (Interstitial collagenase) | IC50 (Adenosine receptor A1)

O=C1NC(=O)C(c2ccccc2)(c2ccccc2)N1 [PHENYTOIN]
Not Active: IC50 [1] | Ki [1] | IC50 [2] | Ki [2] | IC50 [3] | Ki [3] | IC50 [4] | Ki [4] | IC50 (Nitric oxide synthase 1) | IC50 [5] | IC50 (Neutrophil elastase) | IC50 (Interstitial collagenase) | IC50 (Adenosine receptor A1)

O=C1OC2(c3ccc(O)cc3Oc3cc(O)ccc32)c2ccccc21 [FLUORESCEIN]
Not Active: IC50 [1] | Ki [1] | IC50 [2] | Ki [2] | IC50 [3] | Ki [3] | IC50 [4] | Ki [4] | IC50 (Nitric oxide synthase 1) | IC50 [5] | IC50 (Neutrophil elastase) | IC50 (Interstitial collagenase) | IC50 (Adenosine receptor A1)

Cc1c(-c2ccccc2)oc2c(C(=O)OCCN3CCCCC3)cccc2c1=O [FLAVOXATE]
Not Active: IC50 [1] | Ki [1] | IC50 [2] | Ki [2] | IC50 [3] | Ki [3] | IC50 [4] | Ki [4] | IC50 (Nitric oxide synthase 1) | IC50 [5] | IC50 (Neutrophil elastase) | IC50 (Interstitial collagenase) | IC50 (Adenosine receptor A1)

C=C1CC[C@H](O)C/C1=C/C=C1\CCC[C@]2(C)[C@@H]([C@H](C)/C=C/[C@H](C)C(C)C)CC[C@@H]12 [ERGOCALCIFEROL]
Not Active: IC50 [1] | Ki [1] | IC50 [2] | Ki [2] | IC50 [3] | Ki [3] | IC50 [4] | Ki [4] | IC50 (Nitric oxide synthase 1) | IC50 [5] | IC50 (Neutrophil elastase) | IC50 (Interstitial collagenase) | IC50 (Adenosine receptor A1)
